Data taken from patent publication US9695155B2, “Herbicidal substituted pyrimidinyloxy benzene compounds” (E. I. DU PONT DE NEMOURS AND COMPANY, priority 2013, dated 2017).

Experiments:
kochia = assay: Test C postemergence; format: in vivo, Kochia scoparia; conditions: for Plant response rating, Kochia / Kochia plant response rating: scale 0 to 100 (0 no effect, 100 complete control); for Kochia plant response rating: 16 g ai/ha
Method in brief: (§1)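 Injury was assessed visually against controls 13 to 15 days after application, with 0 meaning no effect and 100 full control; missing entries are shown as a dash. Preemergence sprays hit seeded loam–sand soil, postemergence sprays hit 1- to 4-leaf plants.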

galium = assay: Test C postemergence; format: in vivo, Galium aparine; conditions: for Plant response rating, Galium / Galium plant response rating: scale 0 to 100 (0 no effect, 100 complete control); for Galium plant response rating: 16 g ai/ha
Method in brief: as §1

lambsquarters [1] = assay: Test C preemergence; format: in vivo, Chenopodium album; conditions: for Lambsquarters plant response rating: preemergence; for Plant response rating, Lambsquarters: Preemergence, 31 g ai/ha, scale 0 to 100, 0 no effect, 100 complete control
Method in brief: as §1

ragweed = assay: Test C preemergence; format: in vivo, Ambrosia elatior; conditions: for Ragweed plant response rating: preemergence; for Plant response rating, Ragweed: Preemergence, 31 g ai/ha, scale 0 to 100, 0 no effect, 100 complete control
Method in brief: as §1

pigweed [2] = assay: Test A preemergence; format: in vivo, Amaranthus retroflexus; conditions: for Plant response rating, Pigweed: 125 g ai/ha, 0 to 100 scale where 0 is no effect and 100 is complete control; for Pigweed plant response rating: 500 g ai/ha, 0 to 100 scale, 0 no effect, 100 complete control, approx. 10 days
Method in brief: (§2)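 Injury scores run from 0, no effect, to 100, complete control, judged by eye against untreated plants roughly 10 days after treatment. Chemicals carried a surfactant in a non-phytotoxic solvent and went onto loam–sand soil preemergence or onto one- to two-leaf seedlings postemergence.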

morningglory = assay: Test C postemergence; format: in vivo, Ipomoea coccinea; conditions: for Plant response rating, Morningglory: scale 0 to 100 (0 no effect, 100 complete control)
Method in brief: as §1

waterhemp = assay: Test C preemergence; format: in vivo, Amaranthus rudis; conditions: for Waterhemp plant response rating: preemergence; for Plant response rating, Waterhemp: Preemergence, 31 g ai/ha, scale 0 to 100, 0 no effect, 100 complete control
Method in brief: as §1

wheat = assay: Test A preemergence; format: in vivo, Triticum aestivum; conditions: for Plant response rating, Wheat: 125 g ai/ha, 0 to 100 scale where 0 is no effect and 100 is complete control
Method in brief: as §2

corn = assay: Test A postemergence; format: in vivo, Zea mays
Method in brief: as §2

large (Lg) crabgrass = assay: Test A postemergence; format: in vivo, Digitaria sanguinalis
Method in brief: as §2

giant foxtail = assay: Test A postemergence; format: in vivo, Setaria faberii; conditions: 0 to 100 scale where 0 is no effect and 100 is complete control
Method in brief: as §2

lambsquarters [3] = assay: Test C postemergence; format: in vivo, Chenopodium album; conditions: for Plant response rating, Lambsquarters: scale 0 to 100 (0 no effect, 100 complete control)
Method in brief: as §1

yellow nutsedge = assay: Test C preemergence; format: in vivo, Cyperus esculentus; conditions: for Nutsedge, Yellow plant response rating: preemergence; for Plant response rating, Nutsedge, Yellow: Preemergence, 31 g ai/ha, scale 0 to 100, 0 no effect, 100 complete control
Method in brief: as §1

pigweed [4] = assay: Test C preemergence; format: in vivo, Amaranthus retroflexus; conditions: for Pigweed plant response rating: preemergence; for Plant response rating, Pigweed: Preemergence, 31 g ai/ha, scale 0 to 100, 0 no effect, 100 complete control
Method in brief: as §1

velvetleaf = assay: Test A postemergence; format: in vivo, Abutilon theophrasti; conditions: 0 to 100 scale where 0 is no effect and 100 is complete control
Method in brief: as §2

[5] = Postemergence, 31 g ai/ha, 13 to 15 days
[6] = 62 g ai/ha, scale 0 (no effect) to 100 (complete control)
[7] = 125 g ai/ha, scale 0 (no effect) to 100 (complete control)
[8] = 250 g ai/ha, scale 0 (no effect) to 100 (complete control)
[9] = 125 g ai/ha, 0 to 100 scale where 0 is no effect and 100 is complete control
[10] = 500 g ai/ha, 0 to 100 scale, 0 no effect, 100 complete control
[11] = postemergence, visual rating, 13 to 15 days
[12] = 16 g ai/ha, scale 0 to 100 (0 no effect, 100 complete control)
[13] = 500 g ai/ha, 0 to 100 scale where 0 is no effect and 100 is complete control
[14] = 125 g ai/ha, postemergence, visual rating

N#Cc1cccc(Oc2ncc(F)cn2)c1-n1cc(Cl)cn1 [Compound 73]
65: Plant response rating, Morningglory (morningglory; [5]) | Plant response rating, Morningglory (morningglory; Postemergence, 62 g ai/ha)
100: Plant response rating, Pigweed (pigweed [2]) | Pigweed plant response rating (pigweed [2]) | Waterhemp plant response rating (waterhemp; [6]) | Waterhemp plant response rating (waterhemp; [7]) | Waterhemp plant response rating (waterhemp; [8]) | Plant response rating, Waterhemp (waterhemp) | Plant response rating, Crabgrass, Large (large (Lg) crabgrass; [10]) | Plant response rating, Foxtail, Giant (giant foxtail; 500 g ai/ha) | Pigweed plant response rating (pigweed [4]; [6]) | Pigweed plant response rating (pigweed [4]; [7]) | Pigweed plant response rating (pigweed [4]; [8]) | Plant response rating, Pigweed (pigweed [4]) | Plant response rating, Velvetleaf (velvetleaf; 125 g ai/ha) | Plant response rating, Velvetleaf (velvetleaf; 500 g ai/ha)
0: Plant response rating, Wheat (wheat) | Nutsedge, Yellow plant response rating (yellow nutsedge; [6]) | Plant response rating, Nutsedge, Yellow (yellow nutsedge)
15: Nutsedge, Yellow plant response rating (yellow nutsedge; [8])
75: Ragweed plant response rating (ragweed; [6])
98: Lambsquarters plant response rating (lambsquarters [1]; [6]) | Lambsquarters plant response rating (lambsquarters [1]; [7]) | Lambsquarters plant response rating (lambsquarters [1]; [8])
25: Plant response rating, Lambsquarters (lambsquarters [3]; [5])
80: Plant response rating, Kochia (kochia; [5]) | Wheat plant response rating (wheat; 500 g ai/ha, 0 to 100 scale, 0 no effect, 100 complete control, approx. 10 days) | Plant response rating, Corn (corn; [10]) | Plant response rating (0 to 100), Lambsquarters (lambsquarters [3]; 250 g ai/ha, postemergence)
85: Plant response rating, Kochia (kochia; Postemergence, 62 g ai/ha) | Ragweed plant response rating (ragweed; [7]) | Ragweed plant response rating (ragweed; [8]) | Plant response rating (0 to 100), Morningglory (morningglory; 125 g ai/ha, postemergence) | Plant response rating (0 to 100), Morningglory (morningglory; 250 g ai/ha, postemergence)
70: Plant response rating (0 to 100), Galium (galium; 125 g ai/ha, postemergence) | Plant response rating (0 to 100), Galium (galium; 250 g ai/ha, postemergence) | Plant response rating (0 to 100), Lambsquarters (lambsquarters [3]; 125 g ai/ha, postemergence)
55: Plant response rating, Galium (galium; Postemergence, 62 g ai/ha) | Plant response rating, Lambsquarters (lambsquarters [3]; Postemergence, 62 g ai/ha)
60: Plant response rating, Lambsquarters (lambsquarters [1])
5: Nutsedge, Yellow plant response rating (yellow nutsedge; [7])
40: Plant response rating, Galium (galium; [5]) | Plant response rating, Corn (corn; [9])
90: Plant response rating (0 to 100), Kochia (kochia; 125 g ai/ha, postemergence) | Plant response rating (0 to 100), Kochia (kochia; 250 g ai/ha, postemergence) | Plant response rating, Crabgrass, Large (large (Lg) crabgrass; [9]) | Plant response rating, Foxtail, Giant (giant foxtail; 125 g ai/ha)

CCOc1cnn(-c2c(C#N)cccc2Oc2ncc(Cl)cn2)c1 [Compound 92]
35: Plant response rating, Lambsquarters (lambsquarters [3]; [5])
60: Plant response rating, Kochia (kochia; [5])
0: Plant response rating, Wheat (wheat)
100: Lambsquarters plant response rating (lambsquarters [1]; [6]) | Plant response rating, Pigweed (pigweed [2]) | Pigweed plant response rating (pigweed [2]) | Waterhemp plant response rating (waterhemp; [6]) | Waterhemp plant response rating (waterhemp; [7]) | Pigweed plant response rating (pigweed [4]; [6]) | Pigweed plant response rating (pigweed [4]; [7]) | Plant response rating, Velvetleaf (velvetleaf; 125 g ai/ha) | Plant response rating, Velvetleaf (velvetleaf; 500 g ai/ha)
85: Plant response rating (0 to 100), Kochia (kochia; 125 g ai/ha, postemergence) | Ragweed plant response rating (ragweed; [7]) | Plant response rating (0 to 100), Morningglory (morningglory; 125 g ai/ha, postemergence) | Plant response rating, Morningglory (morningglory; [5]) | Plant response rating, Pigweed (pigweed [4])
40: Kochia plant response rating (kochia; [11]) | Plant response rating, Lambsquarters (lambsquarters [3]; Postemergence, 62 g ai/ha)
75: Plant response rating (0 to 100), Lambsquarters (lambsquarters [3]; 125 g ai/ha, postemergence) | Nutsedge, Yellow plant response rating (yellow nutsedge; [7])
50: Ragweed plant response rating (ragweed; [6]) | Plant response rating, Corn (corn; [9]) | Nutsedge, Yellow plant response rating (yellow nutsedge; [6])
70: Galium plant response rating (galium; [11])
80: Plant response rating, Kochia (kochia; Postemergence, 62 g ai/ha) | Plant response rating (0 to 100), Galium (galium; 125 g ai/ha, postemergence) | Plant response rating, Galium (galium; [5]) | Plant response rating, Corn (corn; [13]) | Plant response rating, Crabgrass, Large (large (Lg) crabgrass; [9]) | Plant response rating, Foxtail, Giant (giant foxtail; 125 g ai/ha)
98: Lambsquarters plant response rating (lambsquarters [1]; [7]) | Plant response rating, Lambsquarters (lambsquarters [1]) | Plant response rating, Waterhemp (waterhemp)
65: Plant response rating, Galium (galium; Postemergence, 62 g ai/ha) | Lambsquarters plant response rating (lambsquarters [1]; [12])
10: Ragweed plant response rating (ragweed; [12])
5: Plant response rating, Ragweed (ragweed) | Nutsedge, Yellow plant response rating (yellow nutsedge; [12]) | Plant response rating, Nutsedge, Yellow (yellow nutsedge)
95: Waterhemp plant response rating (waterhemp; [12])
90: Plant response rating, Morningglory (morningglory; Postemergence, 62 g ai/ha) | Plant response rating, Crabgrass, Large (large (Lg) crabgrass; [13]) | Plant response rating, Foxtail, Giant (giant foxtail; 500 g ai/ha) | Pigweed plant response rating (pigweed [4]; [12])

N#Cc1cnn(-c2c(C#N)cccc2Oc2ncc(F)cn2)c1 [Compound 111]
50: Lambsquarters plant response rating (lambsquarters [1]; [12]) | Plant response rating, Ragweed (ragweed) | Nutsedge, Yellow plant response rating (yellow nutsedge; [7])
10: Ragweed plant response rating (ragweed; [12])
80: Galium plant response rating (galium; [11]) | Plant response rating, Morningglory (morningglory; Postemergence, 62 g ai/ha) | Plant response rating, Foxtail, Giant (giant foxtail; 125 g ai/ha) | Plant response rating, Lambsquarters (lambsquarters [3]; Postemergence, 62 g ai/ha)
75: Pigweed plant response rating (pigweed [4]; [12])
60: Kochia plant response rating (kochia; [11]) | Plant response rating, Crabgrass, Large (large (Lg) crabgrass; [9])
98: Plant response rating, Morningglory (morningglory; [14])
15: Nutsedge, Yellow plant response rating (yellow nutsedge; [6])
90: Plant response rating, Kochia (kochia; Postemergence, 62 g ai/ha) | Plant response rating, Galium (galium; Postemergence, 62 g ai/ha) | Plant response rating, Corn (corn; [13]) | Plant response rating, Crabgrass, Large (large (Lg) crabgrass; [13]) | Plant response rating, Foxtail, Giant (giant foxtail; 500 g ai/ha) | Plant response rating, Lambsquarters (lambsquarters [3]; [14])
30: Plant response rating, Corn (corn; [9])
100: Plant response rating, Galium (galium; [14]) | Lambsquarters plant response rating (lambsquarters [1]; [6]) | Lambsquarters plant response rating (lambsquarters [1]; [7]) | Plant response rating, Lambsquarters (lambsquarters [1]) | Ragweed plant response rating (ragweed; [6]) | Ragweed plant response rating (ragweed; [7]) | Plant response rating, Pigweed (pigweed [2]) | Pigweed plant response rating (pigweed [2]) | Waterhemp plant response rating (waterhemp; [12]) | Waterhemp plant response rating (waterhemp; [6]) | Waterhemp plant response rating (waterhemp; [7]) | Plant response rating, Waterhemp (waterhemp) | Pigweed plant response rating (pigweed [4]; [6]) | Pigweed plant response rating (pigweed [4]; [7]) | Plant response rating, Velvetleaf (velvetleaf; 500 g ai/ha)
95: Plant response rating, Kochia (kochia; [14]) | Plant response rating, Pigweed (pigweed [4])
0: Plant response rating, Wheat (wheat) | Nutsedge, Yellow plant response rating (yellow nutsedge; [12]) | Plant response rating, Nutsedge, Yellow (yellow nutsedge)
